Source: patent US11953435B2, “Zinc-responsive fluorophores” (Northwestern University, priority 2019, dated 2024)
“Also recorded” adds a separate entry of the source. Where two headings read alike, the source gives them in different places.

How the values were obtained:
[1] = system: MII egg; assay: Confocal imaging of zinc in live MII eggs; format: cell-based, mouse
Source text: [formula] [formula] [formula] where r(t) is the anisotropy, P(t) is the polarization, Ivv and Ivh are intensities with polarization in the vertical plane and the excitation in the vertical and horizontal planes respectively, Ihv and Ihh are intensities with polarization in the horizontal plane and the excitation in the vertical and horizontal planes respectively, and G is a g-factor that corrects for instrument sensitivity in the horizontal and vertical planes. Metal content of NMR samples. Inductively coupled plasma mass spectrometry (ICP-MS) was performed on a Thermo iCAP Q ICP-MS. 1 mg/mL of ZincBY-1 or ZincBY-4 in acetonitrile-d3 or acetonitrile-d3 only was evaporated overnight at 70° C. 150 μL of HNO3 was added and the samples were digested overnight at 70° C. Samples were diluted to a final nitric acid concentration of 3%. ICP-MS was operated in collision cell mode to reduce polyatomic interferences. An internal standard comprising ^7Li, ^89Y, and ^115In was used. Each sample was acquired using one survey run (10 sweeps) and three main (peak jumping) runs (100 sweeps). Data was fit to a standard curve using a standard containing ^45Sc, […], ^51V, ^52Cr, ^55Mn, ^56Fe, ^59Co, ^58Ni, ^63Cu, and ^64Zn from 5 ppb to 1000 ppb. Only ^56Fe and ^64Zn were detected in the samples above background levels. Computational Analysis of ZincBY-1 and ZincBY-4. All density functional theory (DFT) calculations were performed using version 4.0.1 of the ORCA electronic structure package (Ref. B6; incorporated by reference in its entirety). Guided by the results of earlier studies on BODIPY derivatives (Ref. B7; incorporated by reference in its entirety), the PBE0 functional (Refs. B8-B10; incorporated by reference in their entireties) was used to optimize the geometries of all molecules studied, while time dependent DFT (TD-DFT) calculations and charge analysis through the CHarges from ELectrostatic Potentials using a Grid-based method (CHELPG) (Ref. B11; incorporated by reference in its entirety) were performed with the oB97-XD3 functional (Ref. B12; incorporated by reference in its entirety). All calculations utilized the def2-TZVP basis set (Ref B13; incorporated by reference in its entirety) with the resolution of the identity approximation coupled with the chain of spheres exchange method (RIJCOSX) (Refs. B14-B16; incorporated by reference in their entireties), using the def2/J auxiliary basis (Ref B17; incorporated by reference in its entirety). Implicit solvation effects were included through the conductor like polarizable continuum model (CPCM) (Ref B18; incorporated by reference in its entirety). Calculated spectra were broadened by Gaussians of width 0.2 eV, and red shifted by 0.64 eV to better match the experimental spectra per Momeni and Brown (Ref. B7; incorporated by reference in its entirety). Animals and Egg Collection Mouse. To collect MII-arrested eggs, female mice of at least 5 weeks in age were injected with 5 IU pregnant mare serum gonadotropin (PMSG) followed by 5 IU human chorionic gonadotropin (hCG) 48 hours later. Intact cumulus-oocyte complexes (COCs) were isolated from the oviducts 15 hours after the administration of hCG. Cumulus cells were denuded using 0.3% (w/v) hyaluronidase. Animals were treated in accordance with the US National Institutes of Health Guide for the Care and Use of Laboratory Animals. Food and water were given ad libitum. The Northwestern University Institutional Animal Care and Use Committee approved all the protocols. C. Elegans. Wildtype strain Bristol N2 was used as a control strain in fluorescence microscopy experiments. EU1067: unc-119(ed3) ruIs32[unc-119(+) pie-1^promoter::GFP::H2B] III; ruIs57[unc-119(+) pie-P1^promoter:GFP::tubulin] was used as a marker for cortical granules in fluorescence microscopy experiments. EU1067 was provided by the Caenorhabditis Genetics Center (CGC). […]

[2] = system: MII egg; conditions: previously reported; cited from earlier work
[3] = cited from earlier work; for Brightness (ε*Φ/1000) / Extinction Coefficient (ε) / Quantum Yield (Φ) / λAbs (max) / λEm (max): values reported in Que et al.

SMILES	excitation at 488 nm in the MII egg ([1]; 50 nM probe)	excitation at 552 nm in the MII egg ([1]; 50 nM probe)	region of fluorescence emission in MII eggs ([1]; 50 nM probe, 488 nm excitation)	effect of TPEN on fluorescence in stained MII eggs ([1]; TPEN 5 μM)	spectral overlap with TubulinTracker Green in the MII egg ([1]; single excitation at 488 nm)	fluorescence change on chemical activation (ionomycin) of MII eggs ([1]; time lapse imaging, ionomycin 5 μM)	usable working concentration ([1]; where other probes require micromolar amounts)	Stokes shift in cells ([1]; within cells)	working concentrations lower than those employed with other probes [2]	Brightness (ε*Φ/1000) ([3]; Apo)	Extinction Coefficient (ε) ([3]; Apo)	Quantum Yield (Φ) ([3]; Apo)	λAbs (max) ([3]; Apo)	λEm (max) ([3]; Apo)	Brightness (ε*Φ/1000) ([3]; Zn-bound)	Extinction Coefficient (ε) ([3]; Zn-bound)	Quantum Yield (Φ) ([3]; Zn-bound)	λAbs (max) ([3]; Zn-bound)	λEm (max) ([3]; Zn-bound)	Stokes shift ([3]; literature (Ref. A18))
CC(=O)NCCOc1ccc2n1[B-](F)(F)[N+]1=C(N(CCN(Cc3ccccn3)Cc3ccccn3)Cc3ccccn3)C=CC1=C2c1c(C)cc(C)cc1C [ZincBY-4, N-(2-((7-((2-(bis(pyridin-2-ylmethyl)amino)ethyl)(pyridin-2-ylmethyl)amino)-5,5-difluoro-10-mesityl-5H-5λ4,6λ4-dipyrrolo[1,2-c:2′,1′-f][1,3,2]diazaborinin-3-yl)oxy)ethyl)acetamide]	only ZincBY-4 exhibits a strong fluorescence intensity upon excitation at 488 nm; also recorded: Only ZincBY-4 was readily excited at 488 nm	both probes were excitable at 552 nm	575-750 nm	loss of fluorescence signal in the vesicle region; also recorded: loss in fluorescence was observed	virtually no ZincBY-4 emission detected in the 495-530 nm emission channel; also recorded: virtually no spectral overlap between the two probes	increase in fluorescence intensity outside the egg while fluorescence intensity is lost in the periphery region; also recorded: both loss of zinc from the zinc granule region and increase of zinc outside the cell without the need of a second probe was observed	50 nM	~100 nm												
COc1ccc2n1[B-](F)(F)[N+]1=C(N(CCN(Cc3ccccn3)Cc3ccccn3)Cc3ccccn3)C=CC1=C2c1c(C)cc(C)cc1C [ZincBY-1, reference compound]	Only ZincBY-4 was readily excited at 488 nm	both probes were excitable at 552 nm							20-200 fold	0.57(6) M^−1cm^−1	1.1(0.05) × 10^4 M^−1cm^−1	0.052(3)	533 nm	560 nm	2.6(5) M^−1cm^−1	2.0(3) × 10^4 M^−1cm^−1	0.13(2)	533 nm	543 nm	11 nm
